PMC12117711, “The contribution of cyclic imide stereoisomers on cereblon-dependent activity†” (Chemical Science, 2025)
Each block holds one compound with its values, some of them ahead of it.

What was measured:
[1] = biological target: T1, thalidomide-binding domain of CRBN (CULT) (Homo sapiens, UniProt Q96SW2); test: Photoaffinity labeling binding site mapping with i-pLen probes by LC-MS/MS; details: equimolar mixture of i-pLen probes, photolysis after 30 min at 24 °C
T1 construct: made in house
Procedure: (§1) (v21.1.1) and Adobe Illustrator (v24.1).
(§2) MM.1S, MOLM13, Jurkat, and BxPC3 […]
(§3) μg/mL), and 10% (v/v) FBS.
(§4) Western Blotting Procedures […]
(§5) lysates and the concentration was adjusted using lysis buffer. 5× SDS-PAGE loading buffer […]
(§6) Protein samples (8–15 μL per lane) were […]
(§7) precast gels for medium molecular weight proteins. Gels were transferred to membranes using […]
(§8) for high molecular weight proteins. Membranes were stained with Ponceau S solution to visualize transfer and protein loading.
(§9) Degradation assay by flow cytometry […]
(§10) resuspension in DMEM +/– without phenol red. For IKZF1 degradation assay, propidium […]
(§11) equipped with a high throughput sampler. […]
(§12) using the BD FACSDiva software v9.1. For each experimental condition, the arithmetic mean […]
(§13) comparing compound treatment to DMSO control.
(§14) Structural proteomics mass spectrometry sample preparation […]
addition of a pre-mixed cocktail (final concentrations: 100 μM cleavable biotin picolyl-azide probe, 250 μM THPTA, 250 μM CuSO4, 2.5 mM freshly dissolved sodium ascorbate) and incubated for 1.5 h at 25 °C with inversion. After excess reagent was removed by acetone precipitation, the protein pellet was resuspended in 100 mM TEAB (50 μL, pH=8.5) and 100 mM DTT/PBS (1.5 μL, final concentration 3 mM) was added before incubating for 30 min at 25 °C with inversion. […]
The raw data were analyzed using Proteome Discoverer 2.4.1.15. […]

[2] = biological target: T2, His6-CRBN/DDB1 and GST-BRD4(BD2) (Homo sapiens, UniProt O60885+Q96SW2); test: AlphaScreen ternary complex formation, His6-CRBN/DDB1 and GST-BRD4(BD2); type: binding
T2 construct: His6-CRBN/DDB1 complex and GST-BRD4 BD2 domain; purchased Epicypher (GST-BRD4(BD2)); Bristol Myers Squibb gift (His6-CRBN/DDB1) 15-0013
Procedure: AlphaScreen was performed according to the previously reported method.7 Briefly, for AlphaScreen of His6-CRBN/DDB1, GST-IKZF1 and (S)-, (R)- or rac-lenalidomide-d3, a solution of 100 nM His6-CRBN/DDB1 and 200 nM GST-IKZF1 in 1x AlphaScreen buffer (5 µL) and a solution of the indicated compound in 1x AlphaScreen buffer (5 µL) were added to a each well of a 384-well Optiplate and incubated at 24 °C for 1 h. To each well, a solution of 5 µL of 60 µg/mL AlphaScreen Glutathione Donor beads, 60 µg/mL AlphaLISA Nickel Chelate Donor beads in 1× AlphaScreen buffer was added to each well and incubated at 24 °C for 1 h in the dark and the plate was analyzed. For AlphaScreen of His6-CRBN/DDB1, GST-BRD4(BD2) and bivalent degraders, a solution of 750 nM His-CRBN/DDB1 and 375 nM GST-BRD4(BD2) in 1x AlphaScreen buffer (5 µL) and a solution of the indicated compound in 1x AlphaScreen buffer (5 µL) were added to a each well of a 384-well Optiplate and incubated at 24 °C for 1 h. To each well, a solution of 5 µL of 60 µg/mL AlphaScreen Glutathione Donor beads, 60 µg/mL AlphaLISA Nickel Chelate Donor beads in 1× AlphaScreen buffer was added to each well and incubated at 24 °C for 1 h in the dark and the plate was analyzed. […]
heated at 95 °C for 5 min. 10 µL of the immunoprecipitated sample was load on a 12% Tris-glycine gel and probe-labeling was visualized by fluorescence signal. Separately, 10 µL of the immunoprecipitated sample and the “input” sample were load on a 12% Tris-glycine gel and analyzed by Western blotting. […]
Parental cell lines were stably infected with a unique 24-nucleotide DNA barcode via lentiviral transduction and blasticidin selection. […] Passing barcoded lines were then pooled (20-25 cell lines per pool) based on doubling time and frozen in assay-ready vials.
Test compounds were added to 384-well plates and run at 8 pt. dose with 3-fold dilutions, the highest concentration of 25 µM in triplicate. These assay ready plates were then seeded with […]

MOLM13 cells = test: Global quantitative proteomics of protein levels; type: cell-based; details: 4 h; for FC [fold change abundances (rac/DMSO)] / logFC (rac vs DMSO) / FC [fold change abundances (R/DMSO)] / logFC (R vs DMSO): MOLM13, 100 nM
Procedure: Global Quantitative Proteomics Sample Preparation and Mass Spectrometry Acquisition Global Quantitative Proteomics was performed according to the previously reported method.7 Briefly, 1.0×10^6 MOLM13 cells were seeded in 12-well plates and small molecules of interest were added, and cells were incubated at 37 °C, 5% CO2 for 4 hours. Cells were collected […]
15 sec in total, 11% amplitude) in lysis buffer (5% SDS in 50 mM triethylammonium bicarbonate (TEAB), pH 7.55), and cleared by centrifugation (21,000 × g, 4 °C, 10 min). After protein quantification by BCA protein assay, the lysates were diluted to 1.5 mg/mL with the lysis buffer. The diluted lysates (60 μL) were reduced by addition of dithiothreitol (20 mM) at 24 °C for 30 min then alkylated by addition of iodoacetamide (40 mM) and incubation in the dark at 24 °C for 30 min.

His6-CRBN/DDB1 = His6-CRBN/DDB1 (Homo sapiens, UniProt Q96SW2); test: TR-FRET ligand displacement assay (Thal-FITC tracer) with His6-CRBN/DDB1
[3] = biological target: T3, BRD4(BD1)-GFP in HEK293T cells (Homo sapiens, UniProt O60885+Q96SW2); test: Degradation assay by flow cytometry, BRD4(BD1)-GFP; type: cell-based; details: 76 pM–20 μM, 4 h
T3 construct: HEK293T cells stably expressing BRD4(BD1) fused to GFP
Procedure: as §1, §2, §3, §4, §5, §6, §7, §8, §9, §10, §11, §12, §13, §14
sample throughout the assay duration. The same analysis was also applied to the (S)- […]
dependent activity, we adjusted the dose-response curves accordingly. Because dose- […]
within the error margins of the original curve. […]
squares F-test. This analysis determined whether there was a statistically significant […]
derived (S)-enantiomer. If there is a statistically significant difference, the null […]
Cells were treated with 1 μM MLN4924
The cells were collected and lysed in […]
centrifugation (21,000 × g, 4 °C, 10 min). […]

[4] = KD, competitive TR-FRET, His6-CRBN/DDB1
[5] = Protein CRBN, from IC50 with Correction Factor 1.43

T1 sequence (Q96SW2 318-426 limits assumed): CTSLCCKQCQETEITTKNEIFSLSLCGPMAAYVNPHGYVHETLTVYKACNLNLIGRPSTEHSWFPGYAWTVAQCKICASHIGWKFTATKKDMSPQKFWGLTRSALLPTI

SMILES: [2H]C1([2H])CC([2H])(N2Cc3cc(NC(=O)CCCCCCCCNC(=O)C[C@@H]4N=C(c5ccc(Cl)cc5)c5c(sc(C)c5C)-n5c(C)nnc54)ccc3C2=O)C(=O)NC1=O (mixture of isomers) [JQ1-rac-Len-d3]
ternary complex formation between His6-CRBN/DDB1 and GST-BRD4(BD2) [2]: much less than JQ1-(S)-Len-d3
FC [fold change abundances (rac/DMSO)] (MOLM13 cells; protein AHCY): 0.9686
logFC (rac vs DMSO) (MOLM13 cells; protein AHCY): 0.2393
FC [fold change abundances (rac/DMSO)] (MOLM13 cells; protein GNB4): -1.362
logFC (rac vs DMSO) (MOLM13 cells; protein GNB4): -0.6098
FC [fold change abundances (rac/DMSO)] (MOLM13 cells; protein NUP88): -1.247
logFC (rac vs DMSO) (MOLM13 cells; protein NUP88): -0.5083
FC [fold change abundances (rac/DMSO)] (MOLM13 cells; protein SATB2): -1.143
logFC (rac vs DMSO) (MOLM13 cells; protein SATB2): -0.4122
FC [fold change abundances (rac/DMSO)] (MOLM13 cells; protein TUBB4B): 1.098
logFC (rac vs DMSO) (MOLM13 cells; protein TUBB4B): 0.3694
Kd (His6-CRBN/DDB1; [4]): < 0.002 µM

SMILES: [2H]C1([2H])C[C@@]([2H])(N2Cc3cc(NC(=O)CCCCCCCCNC(=O)C[C@@H]4N=C(c5ccc(Cl)cc5)c5c(sc(C)c5C)-n5c(C)nnc54)ccc3C2=O)C(=O)NC1=O [JQ1-(R)-Len-d3]
BRD4 protein levels by global quantitative proteomics (MOLM13 cells; MOLM13 cells, 100 nM): unperturbed
FC [fold change abundances (R/DMSO)] (MOLM13 cells; protein ARID1A): 3.475
logFC (R vs DMSO) (MOLM13 cells; protein ARID1A): 1.826
FC [fold change abundances (R/DMSO)] (MOLM13 cells; protein CAB39): 0.9606
logFC (R vs DMSO) (MOLM13 cells; protein CAB39): 0.2309
FC [fold change abundances (R/DMSO)] (MOLM13 cells; protein FLII): 1.596
logFC (R vs DMSO) (MOLM13 cells; protein FLII): 0.7992
FC [fold change abundances (R/DMSO)] (MOLM13 cells; protein FUBP3): 1.064
logFC (R vs DMSO) (MOLM13 cells; protein FUBP3): 0.3358
FC [fold change abundances (R/DMSO)] (MOLM13 cells; protein TPD52): 1.273
logFC (R vs DMSO) (MOLM13 cells; protein TPD52): 0.5322
Kd (His6-CRBN/DDB1; [4]): 0.079 µM
degradation of BRD4(BD1)-GFP [3]: limited activity

SMILES: Cc1sc2c(c1C)C(c1ccc(Cl)cc1)=N[C@@H](CC(=O)NCCCCCCCCC(=O)N[C@@H](Cc1ccccc1)C(=O)N[C@@H]1CCC(=O)NC1=O)c1nnc(C)n1-2 [JQ1-FepicQ]
ternary complex formation between His6-CRBN/DDB1 and GST-BRD4(BD2) [2]: minimally promoted the ternary complex
pIC50 (M) (His6-CRBN/DDB1; Protein CRBN, Thalidomide-FITC tracer 50 nM): 6.08 M
IC50 (His6-CRBN/DDB1; Protein CRBN, Thalidomide-FITC tracer 50 nM, protein […]): 0.84 µM
Kd (His6-CRBN/DDB1; [5]): 0.589 µM
pKD (M) (His6-CRBN/DDB1; [5]): 6.23 M

More lines, now with the values ahead:

CRBN residue labeled by the probe [1]: Tyr355
SMILES: C#CCCC1(CC(=O)Nc2ccc3c(c2)C[15N]([C@@H]2CCC(=O)NC2=O)C3=O)N=N1 [(R)-i-pLen]

CRBN residue labeled by the probe [1]: His353
SMILES: C#CCCC1(CC(=O)Nc2ccc3c(c2)CN([C@H]2CCC(=O)[15NH]C2=O)C3=O)N=N1 [(S)-i-pLen]
